# Measured values: patent US4985416A, “Platinum complexes of azodiazonium dyes as anti-tumor agents” (priority 1989, dated 1991)
# Like-named read-outs stand apart in the source and are kept apart here.
# How the values were obtained:
# [1] = tested on: Lewis Lung; test: Tumor growth delay in vivo, Lewis Lung solid tumor; set-up: species or system mice (C57BL/6J); settings: day 7, to reach 500 mm^3
# Experimental: (§1) Anti-tumor activity of the complex prepared as described above was determined in vivo in mice by comparative tests against Fast Black dye alone and against Cis-diamminedichloroplatinum (CDDP) using the following procedure Two different solid tumor cell lines were employed, Lewis Lung and FSaII, 2×10^6 tumor cells being implanted i.m. into the legs of male C57BL/6J and C3H/He mice 8 to 10 weeks of age, respectively. The drugs were administered i.p. on day 7 after tumor implantation (when tumors were about 100 mm^3 in volume), in solution (0.5%) in 0.9% phosphate-buffered saline as carrier. Tumor growth delay is reported in Table I below as the difference in number of days for the treated tumors to reach 500 mm^3 in volume and the number of days required for untreated control tumors to reach the same volume (n=14 in each group). Tumor volume was calculated as a hemiellipsoid. In the control animals, tumors reached the specified volume in 12-14 days.
# [2] = tested on: FSaII; test: Tumor growth delay in vivo, FSaII solid tumor; set-up: species or system mice (C3H/He); settings: day 7, to reach 500 mm^3
# Experimental: as §1
# [3] = tested on: Lewis Lung carcinoma; test: Anti-metastatic activity: lung metastases from Lewis Lung carcinoma; type: in vivo, mice; settings: day 7, lungs day 20, control 14
# Experimental: as §1
# Anti-metastatic activity was determined by implanting Lewis Lung carcinoma cells in the legs of mice as described above, administering drugs in the doses indicated in Table II below, i.p. on day 7 after implantation and removing the lungs on day 20 followed by counting metastases. Control mice received no drug (n=14 in each group).
# [4] = tested on: FSaII fibrosarcoma cells; test: Enhancement of killing effect of heat treatment (hyperthermia) in vivo: growth delay; set-up: species or system mice
# Experimental: FSaII fibrosarcoma cells (2×10^6 FSaII cells) were implanted in the legs of mice: the drug was administered i.p. when the tumor had grown to approximately 50 mm^3 in volume, using 0.9% phosphate buffered saline as carrier, as described above in the doses shown in Table 3 below. Fifteen minutes later radiation was delivered locally to the tumor bearing limb as a single dose of 10, 20, or 30 gray as indicated in the table. No anesthetic was used. The growth of each tumor was measured thrice weekly until it reached a volume of 500 mm^3. Each treatment group had 7 animals and the procedure was repeated 3 times. Tumor volume was calculated as a hemiellipsoid, and in the untreated control animals, tumors reached the specified volume in 14.0 days. The delay is reported in terms of the mean number of additional days beyond the control required for the tumors in each group to reach the specified volume. The results were as follows:
# The complex was also found to be effective in enhancing the killing effect of heat treatment (hyperthermia) in vivo. The procedure described in the preceding paragraph was carried out except that there was substituted for the single radiation dose a heat treatment by immersion of the tumor-bearing limb in a water bath at 44° C. for 30 minutes to raise the tumor temperature to 43° C. The means number of days delay (n=14) was as follows: […]
# [5] = tested on: FSaII fibrosarcoma cells; type: in vivo, mice; settings: 300 mg/kg i.p.
# Experimental: Fifteen minutes later radiation was delivered locally to the tumor bearing limb as a single dose of 10, 20, or 30 gray as indicated in the table. No anesthetic was used. The growth of each tumor was measured thrice weekly until it reached a volume of 500 mm^3. […] The delay is reported in terms of the mean number of additional days beyond the control required for the tumors in each group to reach the specified volume.
# [6] = tested on: carcinoma cells; settings: in words; Bernal et al.; cited from earlier work
# [7] = tested on: EMT6 cells; test: Entry of platinum into EMT6 cells; type: cell-based; settings: in words
structure (smiles),measurement,setting,value
"N.N.[Cl][Pt][Cl] [CDDP, Cis-diamminedichloroplatinum (II)]",Mean No. Days Delay (Lewis Lung),[1]; 5 mg/kg i.p.,< 1 days
same,Mean No. Days Delay (Lewis Lung),[1]; 10 mg/kg i.p.,< 1 days
same,Mean No. Days Delay (FSaII),[2]; 5 mg/kg i.p.,4.4 days
same,Mean No. Days Delay (FSaII),[2]; 10 mg/kg i.p.,8.0 days
same,Mean No. of Metastases per Animal,[3]; 10 mg/kg i.p.,10.7 Metastases per Animal
same,Mean No. Days Delay,"[4]; 5 mg/kg, heat 30 min at 43° C., heat alone 1.4",5.9 days
same,Mean No. Days Delay,"[4]; 5 mg/kg, no heat",4.4 days
COc1cc([N+]#N)c(OC)cc1N=Nc1ccc([N+](=O)[O-])cc1 [Fast Black],Mean No. Days Delay (Lewis Lung),[1]; 250 mg/kg i.p.,2.0 days
same,Mean No. Days Delay (FSaII),[2]; 250 mg/kg i.p.,2.7 days
same,Mean No. of Metastases per Animal,[3]; 50 mg/kg i.p.,13.3 Metastases per Animal
same,Mean No. of Metastases per Animal,[3]; 100 mg/kg i.p.,12.3 Metastases per Animal
same,Mean No. of Metastases per Animal,[3]; 250 mg/kg i.p.,11.0 Metastases per Animal
same,Mean No. Days Delay,[5]; 0 Gray,3.0 days
same,Mean No. Days Delay,"[5]; 10 Gray 15 min later, radiation alone 1.8",7.0 days
same,Mean No. Days Delay,"[5]; 20 Gray 15 min later, radiation alone 6.3",12.6 days
same,Mean No. Days Delay,"[5]; 30 Gray 15 min later, radiation alone 8.8",16.2 days
same,Mean No. Days Delay,"[4]; 300 mg/kg, heat 30 min at 43° C., heat alone 1.4",4.4 days
same,Mean No. Days Delay,"[4]; 300 mg/kg, no heat",2.7 days
COC(=O)c1ccccc1-c1c2ccc(=N)cc-2oc2cc(N)ccc12 [Rhodamine 123],selective toxicity toward carcinoma cells,[6],selectively toxic toward carcinoma cells
"[Cl][Pt-2]([Cl])([Cl])[Cl].[K+].[K+] [potassium tetracloroplatinate, potassium tetrachloroplatinate]",entry of platinum into the cells,[7],only very poor entry of platinum into the cells
